Here are results for 20 compounds from PubChem BioAssay AID256 (DTP/NCI, 2004).

Values joined by “and” are separate entries in the source; they are usually repeats but may differ in a detail not shown here. Equal entries are not always repeated. Inconclusive results and toxic doses are left out.

This assay concerns CD2F1 mice, L1210 leukemia ip, survival T/C. Nature of the assay: NCI In Vivo Anticancer Drug Screen. Data for tumor model L1210 Leukemia (intraperitoneal) in CD2F1 (CDF1) mice. The conditions noted are these: higher = longer survival. Put shortly:
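Each value reflects a quotient of treated over vehicle control outcomes in mice with a transplanted tumor.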

[1] abbreviates: endpoint: mean survival time, dose: 100.0 mg/kg/injection, schedule: Q04DX003 (ip), vehicle: saline with Tween-80.
[2] abbreviates: endpoint: mean survival time, dose: 200.0 mg/kg/injection, schedule: Q04DX003 (ip), vehicle: saline with Tween-80.
[3] abbreviates: endpoint: mean survival time, dose: 400.0 mg/kg/injection, schedule: Q04DX003 (ip), vehicle: saline with Tween-80.
The mark [4] stands for this setting: endpoint: mean survival time, dose: 25.0 mg/kg/injection, schedule: Q04DX002 (ip), vehicle: saline with Tween-80.
Setting [5] is: endpoint: mean survival time, dose: 50.0 mg/kg/injection, schedule: Q04DX002 (ip), vehicle: saline with Tween-80.
Where [6] appears, read: endpoint: mean survival time, dose: 100.0 mg/kg/injection, schedule: Q01DX009 (ip), vehicle: saline with Tween-80.
[7] abbreviates: endpoint: mean survival time, dose: 100.0 mg/kg/injection, schedule: Q04DX002 (ip), vehicle: saline with Tween-80.
The mark [8] stands for this setting: endpoint: mean survival time, dose: 200.0 mg/kg/injection, schedule: Q01DX009 (ip), vehicle: saline with Tween-80.
Where [9] appears, read: endpoint: mean survival time, dose: 400.0 mg/kg/injection, schedule: Q01DX009 (ip), vehicle: saline with Tween-80.

For the compound `Cn1c(=O)c2c(ncn2-c2ccncc2)n(C)c1=O`, the T/C is, setting by setting: (endpoint: mean survival time, dose: 12.5 mg/kg/injection, schedule: Q01DX005 (ip), vehicle: saline with Tween-80) 93 % of control; (endpoint: mean survival time, dose: 25.0 mg/kg/injection, schedule: Q01DX005 (ip), vehicle: saline with Tween-80) 98 % of control; (endpoint: mean survival time, dose: 50.0 mg/kg/injection, schedule: Q01DX005 (ip), vehicle: saline with Tween-80) 96 % of control; (endpoint: mean survival time, dose: 100.0 mg/kg/injection, schedule: Q01DX005 (ip), vehicle: saline with Tween-80) 104 % of control.
For `CCOC(=O)Nc1ccc(C(=O)O)c(O)c1`, the T/C is, setting by setting: under setting [1], 96 % of control; under setting [2], 96 % of control; under setting [3], 100 % of control.
With `COc1c(C=O)c2c(c(OC)c1OC)-c1ccc(OC)c(=O)cc1[C@@H](NC(C)=O)CC2`, for the setting “endpoint: median survival time, dose: 12.5 mg/kg/injection, schedule: Q01DX009 (ip), vehicle: Klucel (hydroxypropylcellulose) (HPC)”, the T/C is 100 % of control.
Regarding `N#CC(=C=[N-])C(C#N)(C#N)Cc1ccccc1.[C-]#[O+].[C-]#[O+].[Fe+6].[c-]1[c-][c-][cH-][c-]1`, the T/C by setting is: (endpoint: mean survival time, dose: 12.5 mg/kg/injection, schedule: Q04DX002 (ip), vehicle: saline with Tween-80) 93 % of control; under setting [4], 97 % of control; under setting [5], 97 % of control.
For `O=CC(O)C(O)C(O)CO` (configuration not stated), the T/C reads like this: (endpoint: mean survival time, dose: 100.0 mg/kg/injection, schedule: Q01DX001 (ip), vehicle: saline) 96 % of control; (endpoint: mean survival time, dose: 200.0 mg/kg/injection, schedule: Q01DX001 (ip), vehicle: saline) 93 % of control; (endpoint: mean survival time, dose: 400.0 mg/kg/injection, schedule: Q01DX001 (ip), vehicle: saline) 98 % of control.
In the case of `CC(=O)NC1=C(Sc2ccc([N+](=O)[O-])cc2)C(=O)c2ccccc2C1=O`, the T/C (endpoint: mean survival time, dose: 75.0 mg/kg/injection, schedule: Q01DX001 (ip), vehicle: saline) was 98 % of control.
Regarding `CNC(=O)Oc1cccc(NC(=O)OC(C)C(C)C)c1` (configuration not stated), the T/C by setting is: under setting [1], 98 % of control; under setting [2], 90 % of control; under setting [3], 96 % of control.
Regarding `NC(=O)/C=C/C(=O)NC(=O)Cc1ccccc1`, the T/C is 97 % of control (endpoint: mean survival time, dose: 3.0 mg/kg/injection, schedule: Q01DX009 (ip), vehicle: saline with Tween-80); 98 % of control (endpoint: mean survival time, dose: 6.0 mg/kg/injection, schedule: Q01DX009 (ip), vehicle: saline with Tween-80); 92 % of control (endpoint: mean survival time, dose: 12.0 mg/kg/injection, schedule: Q01DX009 (ip), vehicle: saline with Tween-80).
For the compound `CC(=O)Oc1ccc(Nc2c3ccccc3nc3ccccc23)cc1`, the T/C is, setting by setting: (endpoint: mean survival time, dose: 44.0 mg/kg/injection, schedule: Q01DX001 (ip), vehicle: saline with Tween-80) 119 % of control; (endpoint: mean survival time, dose: 44.0 mg/kg/injection, schedule: Q01DX009 (ip), vehicle: saline with Tween-80) 155 % of control; (endpoint: mean survival time, dose: 66.0 mg/kg/injection, schedule: Q01DX001 (ip), vehicle: saline with Tween-80) 109 % of control; (endpoint: mean survival time, dose: 66.0 mg/kg/injection, schedule: Q01DX009 (ip), vehicle: saline with Tween-80) 94 % of control; (endpoint: mean survival time, dose: 100.0 mg/kg/injection, schedule: Q01DX001 (ip), vehicle: saline with Tween-80) 152 % of control; under setting [6], 88 % of control. In addition, the T/C under setting [7] is 177 % of control.
Consider `CC(C)C1CCC(C)C(C(O)(C(F)(F)F)C(F)(F)F)C1=O` (configuration not stated), for which the T/C was 96 % of control (endpoint: mean survival time, dose: 100.0 mg/kg/injection, schedule: Q04DX003 (ip), vehicle: Klucel (hydroxypropylcellulose) (HPC)); 95 % of control (endpoint: mean survival time, dose: 200.0 mg/kg/injection, schedule: Q04DX003 (ip), vehicle: Klucel (hydroxypropylcellulose) (HPC)); 96 % of control (endpoint: mean survival time, dose: 400.0 mg/kg/injection, schedule: Q04DX003 (ip), vehicle: Klucel (hydroxypropylcellulose) (HPC)).
Turning to `COS(=O)C(c1ccccc1)C(c1ccccc1)C(O)c1ccccc1` (configuration not stated), the T/C reads like this: under setting [6], 90 % of control; under setting [8], 90 % of control; under setting [9], 95 % of control.
As for `C[P+](c1ccc(Cl)cc1)(c1ccc(Cl)cc1)c1ccc(Cl)cc1`, the T/C is, setting by setting: (endpoint: mean survival time, dose: 6.25 mg/kg/injection, schedule: Q01DX009 (ip), vehicle: saline) 119 % of control; (endpoint: mean survival time, dose: 12.5 mg/kg/injection, schedule: Q01DX009 (ip), vehicle: saline) 107 % of control; (endpoint: mean survival time, dose: 25.0 mg/kg/injection, schedule: Q01DX009 (ip), vehicle: saline) 109 % of control.
For `CC1CCC(C(O)(C(=O)c2ccccc2)c2ccccc2)C(=O)C1` (configuration not stated), the T/C under setting [6] is 100 % of control, the T/C under setting [8] was 98 % of control and the T/C under setting [9] is 98 % of control.
As to `Cc1ccc(S(=O)(=O)CN2CCC(=O)c3ccccc32)cc1`, the T/C was 95 % of control (endpoint: mean survival time, dose: 75.0 mg/kg/injection, schedule: Q04DX003 (ip), vehicle: saline); 91 % of control (endpoint: mean survival time, dose: 150.0 mg/kg/injection, schedule: Q04DX003 (ip), vehicle: saline); 97 % of control (endpoint: mean survival time, dose: 300.0 mg/kg/injection, schedule: Q04DX003 (ip), vehicle: saline).
Consider `Nc1ncn(C2OC(COC(=O)c3ccccc3)C(OC(=O)c3ccccc3)C2OC(=O)c2ccccc2)n1` (configuration not stated), for which the T/C is, setting by setting: (endpoint: median survival time, dose: 8.75 mg/kg/injection, schedule: Q01DX005 (ip), vehicle: distilled water + Tween-80) 94 % of control; (endpoint: median survival time, dose: 17.5 mg/kg/injection, schedule: Q01DX005 (ip), vehicle: distilled water + Tween-80) 91 % of control; (endpoint: median survival time, dose: 35.0 mg/kg/injection, schedule: Q01DX005 (ip), vehicle: distilled water + Tween-80) 91 % of control; (endpoint: median survival time, dose: 70.0 mg/kg/injection, schedule: Q01DX005 (ip), vehicle: distilled water + Tween-80) 95 % of control; (endpoint: median survival time, dose: 140.0 mg/kg/injection, schedule: Q01DX005 (ip), vehicle: distilled water + Tween-80) 91 % of control.
Take `CC(C)C(=O)Nc1nc(OCCc2ccc([N+](=O)[O-])cc2)c2ncn(C3CC(O)C(CO)O3)c2n1` (configuration not stated): the T/C was 101 % of control (endpoint: median survival time, dose: 12.5 mg/kg/injection, schedule: Q01DX005 (ip), vehicle: saline with Tween-80); 97 % of control (endpoint: median survival time, dose: 25.0 mg/kg/injection, schedule: Q01DX005 (ip), vehicle: saline with Tween-80); 97 % of control (endpoint: median survival time, dose: 50.0 mg/kg/injection, schedule: Q01DX005 (ip), vehicle: saline with Tween-80); 95 % of control (endpoint: median survival time, dose: 100.0 mg/kg/injection, schedule: Q01DX005 (ip), vehicle: saline with Tween-80); 86 % of control (endpoint: median survival time, dose: 200.0 mg/kg/injection, schedule: Q01DX005 (ip), vehicle: saline with Tween-80).
`COC(=O)c1ccccc1C(=O)c1n[nH]c2ccccc12`: the T/C is, setting by setting: under setting [4], 103 % of control; under setting [5], 106 % of control; under setting [7], 106 % of control; (endpoint: mean survival time, dose: 200.0 mg/kg/injection, schedule: Q04DX002 (ip), vehicle: saline with Tween-80) 106 % of control.
On to `CCN1CC1` (tested in a mixture with another compound), for which the T/C reads like this: (endpoint: mean survival time, dose: 1.17 mg/kg/injection, schedule: Q01DX009 (ip), vehicle: Klucel (hydroxypropylcellulose) (HPC)) 93 % of control; (endpoint: mean survival time, dose: 1.56 mg/kg/injection, schedule: Q04DX003 (ip), vehicle: other) 92 % of control; (endpoint: mean survival time, dose: 2.34 mg/kg/injection, schedule: Q01DX009 (ip), vehicle: Klucel (hydroxypropylcellulose) (HPC)) 102 % of control; (endpoint: mean survival time, dose: 3.12 mg/kg/injection, schedule: Q04DX003 (ip), vehicle: other) 101 % of control; (endpoint: mean survival time, dose: 4.68 mg/kg/injection, schedule: Q01DX009 (ip), vehicle: Klucel (hydroxypropylcellulose) (HPC)) 86 % of control; (endpoint: mean survival time, dose: 6.25 mg/kg/injection, schedule: Q04DX003 (ip), vehicle: other) 91 % of control. The T/C by setting is: (endpoint: mean survival time, dose: 9.37 mg/kg/injection, schedule: Q04DX003 (ip), vehicle: Klucel (hydroxypropylcellulose) (HPC)) 96 % of control and 98 % of control; (endpoint: mean survival time, dose: 14.2 mg/kg/injection, schedule: Q04DX003 (ip), vehicle: Klucel (hydroxypropylcellulose) (HPC)) 86 % of control and 94 % of control; (endpoint: mean survival time, dose: 21.3 mg/kg/injection, schedule: Q04DX003 (ip), vehicle: Klucel (hydroxypropylcellulose) (HPC)) 103 % of control.
With `O=P(NC12CC3CC(CC(C3)C1)C2)(N1CC1)N1CC1`, the T/C was 120 % of control (endpoint: mean survival time, dose: 4.8 mg/kg/injection, schedule: Q04DX003 (ip), vehicle: Klucel (hydroxypropylcellulose) (HPC)); 120 % of control (endpoint: mean survival time, dose: 9.6 mg/kg/injection, schedule: Q04DX003 (ip), vehicle: Klucel (hydroxypropylcellulose) (HPC)); 162 % of control (endpoint: mean survival time, dose: 30.0 mg/kg/injection, schedule: Q04DX003 (ip), vehicle: Klucel (hydroxypropylcellulose) (HPC)).
Turning to `O=C(/C(=N/N(C(=O)c1ccccc1)c1ccccc1)c1ccccc1)c1ccccc1`, the T/C was 102 % of control under setting [1], 88 % of control under setting [2] and 95 % of control under setting [3].
